Legend:
[1] = molecular target: Ribosomal protein S6 kinase alpha-6 (Homo sapiens, UniProt Q9UK32); test: Selectivity interaction (KinomeScan (DiscoverX)) EUB0001049a RPS6KA6; settings: at 1 µM
[2] = molecular target: Insulin-like growth factor 1 receptor (Homo sapiens, UniProt P08069); settings: at 3 µM
[3] = molecular target: Protein arginine N-methyltransferase 3 (Homo sapiens, UniProt O60678); settings: at 10 µM
[4] = molecular target: Mitogen-activated protein kinase kinase kinase kinase 4 (Homo sapiens, UniProt O95819); test: Selectivity interaction (KinomeScan (DiscoverX)) EUB0001079a MAP4K4; settings: at 1 µM
[5] = molecular target: Homeodomain-interacting protein kinase 3 (Homo sapiens, UniProt Q9H422); test: Selectivity interaction (Kinase panel (Invitrogen)) EUB0000639a HIPK3; settings: at 200 nM
[6] = molecular target: Cyclin-dependent kinase 17 (Homo sapiens) (UniProt Q00537); test: Selectivity interaction (ActivX KiNativ screen (kinase selectivity in THP-1 cell lysates)) EUB0000639a CDK17; type: subcellular; settings: lysate
Sequence of Cyclin-dependent kinase 17 (Homo sapiens) (Q00537 whole entry, looked up): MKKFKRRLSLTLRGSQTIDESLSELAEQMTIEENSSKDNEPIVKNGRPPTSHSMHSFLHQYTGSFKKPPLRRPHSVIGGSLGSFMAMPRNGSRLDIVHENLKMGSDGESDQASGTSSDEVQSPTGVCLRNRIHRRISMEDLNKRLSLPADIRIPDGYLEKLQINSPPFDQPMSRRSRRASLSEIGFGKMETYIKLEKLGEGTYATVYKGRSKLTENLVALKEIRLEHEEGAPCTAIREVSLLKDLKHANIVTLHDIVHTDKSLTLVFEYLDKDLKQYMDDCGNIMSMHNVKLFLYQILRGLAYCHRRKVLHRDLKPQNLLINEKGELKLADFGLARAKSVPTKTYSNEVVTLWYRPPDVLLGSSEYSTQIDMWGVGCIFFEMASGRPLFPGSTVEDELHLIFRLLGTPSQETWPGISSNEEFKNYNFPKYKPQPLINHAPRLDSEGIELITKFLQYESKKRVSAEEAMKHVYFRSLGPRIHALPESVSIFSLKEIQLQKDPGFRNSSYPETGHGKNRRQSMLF

[7] = molecular target: T1, Cyclin-dependent kinase 11A (Homo sapiens) (UniProt Q9UQ88); test: Selectivity interaction (Ambit KINOMEscan and KiNATiv profiling in Jurkat cells) EUB0000090b CDK11A; type: cell-based; settings: at 1 µM
T1 sequence (whole entry): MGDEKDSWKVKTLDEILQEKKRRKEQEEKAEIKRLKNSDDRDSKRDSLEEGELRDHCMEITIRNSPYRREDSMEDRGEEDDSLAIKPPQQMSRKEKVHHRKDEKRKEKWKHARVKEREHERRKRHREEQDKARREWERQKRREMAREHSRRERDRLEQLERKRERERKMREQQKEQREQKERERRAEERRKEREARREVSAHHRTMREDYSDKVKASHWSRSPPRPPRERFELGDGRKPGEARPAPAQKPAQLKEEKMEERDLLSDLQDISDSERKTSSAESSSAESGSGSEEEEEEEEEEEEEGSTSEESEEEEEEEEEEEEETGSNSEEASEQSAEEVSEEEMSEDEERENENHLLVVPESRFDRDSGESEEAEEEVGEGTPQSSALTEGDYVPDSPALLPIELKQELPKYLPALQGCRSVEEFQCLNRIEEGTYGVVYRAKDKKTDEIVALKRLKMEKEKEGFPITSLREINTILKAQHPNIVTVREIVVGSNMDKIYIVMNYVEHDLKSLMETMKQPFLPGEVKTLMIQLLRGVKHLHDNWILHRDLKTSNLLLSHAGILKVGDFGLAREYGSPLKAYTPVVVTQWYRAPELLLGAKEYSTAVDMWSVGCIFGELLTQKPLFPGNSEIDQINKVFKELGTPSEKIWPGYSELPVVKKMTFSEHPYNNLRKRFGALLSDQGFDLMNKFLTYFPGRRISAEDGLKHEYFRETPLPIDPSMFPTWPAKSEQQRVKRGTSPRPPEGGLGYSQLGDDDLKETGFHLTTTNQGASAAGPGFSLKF

[8] = molecular target: Bone morphogenetic protein receptor type-1A (Homo sapiens, UniProt P36894); test: Selectivity interaction (KinomeScan (DiscoverX)) EUB0000618a BMPR1A; settings: at 10 µM
Sequence of Bone morphogenetic protein receptor type-1A (P36894 whole entry): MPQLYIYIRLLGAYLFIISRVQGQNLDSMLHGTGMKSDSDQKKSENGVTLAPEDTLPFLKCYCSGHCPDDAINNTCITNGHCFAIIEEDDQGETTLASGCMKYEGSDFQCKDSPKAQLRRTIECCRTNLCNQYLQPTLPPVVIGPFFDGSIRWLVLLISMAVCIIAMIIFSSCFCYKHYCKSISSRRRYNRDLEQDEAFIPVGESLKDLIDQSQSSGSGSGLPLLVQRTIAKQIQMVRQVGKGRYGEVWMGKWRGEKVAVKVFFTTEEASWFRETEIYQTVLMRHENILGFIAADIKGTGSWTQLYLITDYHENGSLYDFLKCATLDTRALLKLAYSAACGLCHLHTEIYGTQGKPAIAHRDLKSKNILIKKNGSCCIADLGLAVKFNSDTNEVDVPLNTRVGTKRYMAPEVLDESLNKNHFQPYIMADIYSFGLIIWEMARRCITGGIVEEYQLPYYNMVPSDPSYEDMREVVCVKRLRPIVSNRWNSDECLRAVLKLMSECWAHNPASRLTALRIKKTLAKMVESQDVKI

[9] = Selectivity interaction (KinomeScan (DiscoverX)) EUB0000618a CDK2H; settings: at 10 µM
[10] = molecular target: Serine/threonine-protein kinase PLK2 (Homo sapiens, UniProt Q9NYY3); test: Selectivity interaction (KinomeScan (DiscoverX)) EUB0000618a PLK2; settings: at 10 µM
[11] = molecular target: RAC-alpha serine/threonine-protein kinase (Homo sapiens, UniProt P31749); settings: at 10 µM
Sequence of RAC-alpha serine/threonine-protein kinase (P31749 whole entry): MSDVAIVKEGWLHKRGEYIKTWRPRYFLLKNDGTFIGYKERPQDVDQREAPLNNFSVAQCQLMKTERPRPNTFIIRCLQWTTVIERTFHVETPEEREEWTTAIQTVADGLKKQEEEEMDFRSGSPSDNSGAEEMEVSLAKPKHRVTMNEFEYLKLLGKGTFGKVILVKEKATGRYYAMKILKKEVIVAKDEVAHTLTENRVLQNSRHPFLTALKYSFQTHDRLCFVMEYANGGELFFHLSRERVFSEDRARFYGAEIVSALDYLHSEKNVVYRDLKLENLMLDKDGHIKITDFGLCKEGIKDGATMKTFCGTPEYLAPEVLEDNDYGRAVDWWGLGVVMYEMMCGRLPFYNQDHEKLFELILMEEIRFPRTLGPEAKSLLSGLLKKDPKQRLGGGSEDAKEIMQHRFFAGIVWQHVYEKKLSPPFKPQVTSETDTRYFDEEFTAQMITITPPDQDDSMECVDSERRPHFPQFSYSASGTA

[12] = molecular target: Fibroblast growth factor receptor 3 (Homo sapiens, UniProt P22607); settings: at 10 µM
Sequence of Fibroblast growth factor receptor 3 (P22607 23-806 limits assumed): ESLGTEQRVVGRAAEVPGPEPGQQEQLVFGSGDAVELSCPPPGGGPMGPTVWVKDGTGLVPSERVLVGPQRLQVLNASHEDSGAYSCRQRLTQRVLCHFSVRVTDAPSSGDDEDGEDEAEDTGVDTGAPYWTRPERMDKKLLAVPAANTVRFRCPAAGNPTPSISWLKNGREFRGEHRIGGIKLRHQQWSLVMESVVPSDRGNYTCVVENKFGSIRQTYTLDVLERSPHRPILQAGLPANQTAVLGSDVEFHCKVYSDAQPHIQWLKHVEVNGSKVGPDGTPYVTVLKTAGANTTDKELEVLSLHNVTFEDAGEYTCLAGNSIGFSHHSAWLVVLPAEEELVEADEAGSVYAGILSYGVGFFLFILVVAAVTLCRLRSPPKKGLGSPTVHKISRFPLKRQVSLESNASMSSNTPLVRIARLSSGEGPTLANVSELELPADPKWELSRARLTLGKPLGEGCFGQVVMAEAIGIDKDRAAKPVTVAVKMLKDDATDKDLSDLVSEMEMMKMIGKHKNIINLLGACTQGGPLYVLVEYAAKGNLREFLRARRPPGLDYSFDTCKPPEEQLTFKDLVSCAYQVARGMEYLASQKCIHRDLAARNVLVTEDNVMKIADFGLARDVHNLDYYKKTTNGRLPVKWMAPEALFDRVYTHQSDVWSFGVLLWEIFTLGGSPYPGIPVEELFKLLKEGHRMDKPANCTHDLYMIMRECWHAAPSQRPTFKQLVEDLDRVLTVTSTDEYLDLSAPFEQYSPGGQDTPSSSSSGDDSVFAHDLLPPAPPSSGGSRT

[13] = molecular target: Glycogen synthase kinase-3 beta (Homo sapiens, UniProt P49841); test: Selectivity interaction (KinomeScan (DiscoverX)) EUB0000655a GSK3B; settings: at 10 µM
[14] = molecular target: T2, Serine/threonine-protein kinase BRSK2 (Homo sapiens) (UniProt Q8IWQ3); test: Selectivity interaction (KinomeScan (DiscoverX)) EUB0000607a BRSK2; settings: at 10 µM
T2 sequence (whole entry): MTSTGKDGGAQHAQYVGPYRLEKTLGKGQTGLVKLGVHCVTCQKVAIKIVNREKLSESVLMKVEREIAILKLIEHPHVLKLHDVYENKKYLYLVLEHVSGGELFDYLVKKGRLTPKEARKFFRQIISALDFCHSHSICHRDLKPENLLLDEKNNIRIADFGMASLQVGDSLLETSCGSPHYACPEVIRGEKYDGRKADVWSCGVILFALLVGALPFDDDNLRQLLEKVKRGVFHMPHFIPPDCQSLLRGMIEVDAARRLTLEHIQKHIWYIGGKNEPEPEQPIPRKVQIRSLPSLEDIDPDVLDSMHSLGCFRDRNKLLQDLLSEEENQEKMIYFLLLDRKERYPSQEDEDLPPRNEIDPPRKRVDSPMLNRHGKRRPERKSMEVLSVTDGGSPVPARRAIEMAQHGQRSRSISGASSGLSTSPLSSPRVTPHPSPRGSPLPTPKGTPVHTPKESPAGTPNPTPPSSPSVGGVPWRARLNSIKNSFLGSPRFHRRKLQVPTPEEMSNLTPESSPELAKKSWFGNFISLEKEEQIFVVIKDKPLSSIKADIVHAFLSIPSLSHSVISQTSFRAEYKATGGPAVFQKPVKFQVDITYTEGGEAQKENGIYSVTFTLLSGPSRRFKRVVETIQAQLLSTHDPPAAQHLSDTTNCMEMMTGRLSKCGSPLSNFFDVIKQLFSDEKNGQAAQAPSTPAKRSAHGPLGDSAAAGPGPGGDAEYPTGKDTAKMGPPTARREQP

[15] = molecular target: Mitogen-activated protein kinase kinase kinase 1 (Homo sapiens, UniProt Q13233); test: Selectivity interaction (KinomeScan (DiscoverX)) EUB0000607a MAP3K1; settings: at 10 µM
[16] = molecular target: Ribosomal protein S6 kinase beta-1 (Homo sapiens, UniProt P23443); test: Selectivity interaction (SelectScreen profiling (Invitrogen)) EUB0000607a RPS6KB1; settings: at 2 µM
Sequence of Ribosomal protein S6 kinase beta-1 (P23443 whole entry, looked up): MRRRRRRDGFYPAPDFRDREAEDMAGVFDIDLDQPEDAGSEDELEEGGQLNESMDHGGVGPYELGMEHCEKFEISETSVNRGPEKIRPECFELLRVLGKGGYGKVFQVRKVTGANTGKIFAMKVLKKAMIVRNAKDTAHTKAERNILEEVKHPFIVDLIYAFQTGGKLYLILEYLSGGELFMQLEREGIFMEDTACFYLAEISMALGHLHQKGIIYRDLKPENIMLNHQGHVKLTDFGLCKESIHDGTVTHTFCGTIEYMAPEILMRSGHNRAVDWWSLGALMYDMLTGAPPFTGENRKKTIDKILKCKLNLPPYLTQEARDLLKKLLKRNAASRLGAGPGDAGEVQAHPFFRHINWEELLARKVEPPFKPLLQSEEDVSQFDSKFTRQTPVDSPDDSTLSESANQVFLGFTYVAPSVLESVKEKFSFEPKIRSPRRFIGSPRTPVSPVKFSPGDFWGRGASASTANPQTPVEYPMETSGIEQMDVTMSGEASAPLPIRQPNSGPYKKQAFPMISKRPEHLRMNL

Sequence of Insulin-like growth factor 1 receptor (P08069 31-736 limits assumed): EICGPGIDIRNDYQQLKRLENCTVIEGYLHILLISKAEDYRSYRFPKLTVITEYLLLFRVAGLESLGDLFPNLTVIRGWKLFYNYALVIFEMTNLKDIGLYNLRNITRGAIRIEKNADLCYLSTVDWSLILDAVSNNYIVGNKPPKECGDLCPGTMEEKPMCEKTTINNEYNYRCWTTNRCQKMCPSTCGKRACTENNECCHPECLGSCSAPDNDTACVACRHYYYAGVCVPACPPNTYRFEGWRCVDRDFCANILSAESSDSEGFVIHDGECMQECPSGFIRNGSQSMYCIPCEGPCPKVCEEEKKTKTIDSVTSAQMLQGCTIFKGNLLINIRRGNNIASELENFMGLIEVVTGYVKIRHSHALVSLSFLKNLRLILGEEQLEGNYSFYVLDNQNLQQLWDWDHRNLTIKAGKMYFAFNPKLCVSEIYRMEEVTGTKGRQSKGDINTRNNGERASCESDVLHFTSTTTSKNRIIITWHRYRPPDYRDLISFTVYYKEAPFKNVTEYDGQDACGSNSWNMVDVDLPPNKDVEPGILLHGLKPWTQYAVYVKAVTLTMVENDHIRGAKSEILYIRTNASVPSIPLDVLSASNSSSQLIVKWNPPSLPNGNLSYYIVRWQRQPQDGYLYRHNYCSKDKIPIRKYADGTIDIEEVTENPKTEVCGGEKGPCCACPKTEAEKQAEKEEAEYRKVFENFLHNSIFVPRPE
Sequence of Insulin-like growth factor 1 receptor (P08069 741-1367 limits assumed): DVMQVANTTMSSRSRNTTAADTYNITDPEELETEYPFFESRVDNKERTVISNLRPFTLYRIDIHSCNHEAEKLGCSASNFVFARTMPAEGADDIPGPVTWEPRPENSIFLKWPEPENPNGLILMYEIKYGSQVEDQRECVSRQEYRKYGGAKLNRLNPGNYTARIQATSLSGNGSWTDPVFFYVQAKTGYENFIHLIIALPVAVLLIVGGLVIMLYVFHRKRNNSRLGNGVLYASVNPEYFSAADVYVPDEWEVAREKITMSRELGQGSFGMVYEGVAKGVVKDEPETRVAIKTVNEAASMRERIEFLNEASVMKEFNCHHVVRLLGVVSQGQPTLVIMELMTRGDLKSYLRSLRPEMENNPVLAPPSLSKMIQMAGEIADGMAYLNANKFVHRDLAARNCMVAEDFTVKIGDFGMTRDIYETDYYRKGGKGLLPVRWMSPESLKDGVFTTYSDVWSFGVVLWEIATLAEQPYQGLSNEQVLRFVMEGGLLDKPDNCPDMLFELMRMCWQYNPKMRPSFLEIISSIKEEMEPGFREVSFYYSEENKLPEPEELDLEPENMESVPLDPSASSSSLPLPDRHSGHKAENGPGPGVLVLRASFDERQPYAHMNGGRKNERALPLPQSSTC
Sequence of Ribosomal protein S6 kinase alpha-6 (Q9UK32 whole entry): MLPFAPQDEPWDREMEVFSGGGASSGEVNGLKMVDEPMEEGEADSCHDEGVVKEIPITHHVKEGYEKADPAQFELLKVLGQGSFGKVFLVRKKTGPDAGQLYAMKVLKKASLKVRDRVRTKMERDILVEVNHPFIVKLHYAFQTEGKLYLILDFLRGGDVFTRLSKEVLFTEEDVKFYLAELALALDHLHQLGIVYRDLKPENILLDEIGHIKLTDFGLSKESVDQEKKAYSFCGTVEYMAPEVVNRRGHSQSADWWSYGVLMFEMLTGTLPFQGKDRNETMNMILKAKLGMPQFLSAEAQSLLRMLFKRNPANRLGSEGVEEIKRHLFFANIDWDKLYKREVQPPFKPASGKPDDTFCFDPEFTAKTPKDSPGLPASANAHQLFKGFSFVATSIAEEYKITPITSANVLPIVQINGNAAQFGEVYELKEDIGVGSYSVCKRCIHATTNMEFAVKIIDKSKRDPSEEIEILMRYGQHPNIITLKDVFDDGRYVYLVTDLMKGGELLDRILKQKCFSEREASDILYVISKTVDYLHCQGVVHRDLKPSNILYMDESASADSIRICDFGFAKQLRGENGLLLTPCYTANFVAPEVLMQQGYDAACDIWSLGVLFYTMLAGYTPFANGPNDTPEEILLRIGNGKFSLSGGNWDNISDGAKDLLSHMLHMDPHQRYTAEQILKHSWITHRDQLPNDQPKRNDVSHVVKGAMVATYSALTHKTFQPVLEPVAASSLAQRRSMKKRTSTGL

Work on `COc1cc(Nc2nc(C)cc(-c3cnn4nc(OC)ccc34)n2)cc(C(F)(F)F)c1` yielded a % of control [1] of 70%.

In the case of `CCc1cc(Nc2nccc(-c3c(-c4ccc(OC)c(C(=O)Nc5c(F)cccc5F)c4)nc4ccccn34)n2)c(OC)cc1N1CCC(N2CCN(S(C)(=O)=O)CC2)CC1`, the % of inhibition [2] is reported as 100%.

With `CNCCN1CCC(c2cc(CN(C)C(=O)c3cccc(Oc4ccccc4)c3)ccn2)CC1` the % activity [3] was > 90%.

`Nc1cnc(N2CCc3cc(S(=O)(=O)Nc4c(F)cc(Cl)cc4F)cc(N4CCCC4=O)c32)nc1` [TP-020n] gave a % of control [4] of 61%.

Work on `CC[C@@H]1[C@H](F)C(=O)N[C@@H]1COc1nccc2cc(C(N)=O)c(OC)cc12` [ZIMLOVISERTIB] yielded a % of inhibition [5] of 5.1%, a % of inhibition ([6]; at 0.01 µM) of -4.8% and a % of inhibition ([6]; at 0.04 µM) of -2.9%. For the same molecule, the % of inhibition ([6]; at 0.2 µM) was 2.8%, the % of inhibition ([6]; at 1 µM) was 6% and the % of inhibition ([6]; at 5 µM) was 5.6%.

`CN(C)C/C=C/C(=O)Nc1ccc(C(=O)N2CCCC(Nc3ncc(Cl)c(-c4c[nH]c5ccccc45)n3)C2)cc1` (stereo not given) gave a % of control [7] of 100%.

`O[C@H]1CC[C@H](Nc2ncc3nc(Nc4c(F)cc(F)cc4F)n([C@H]4CCOC4)c3n2)CC1` showed a % of control [8] of 100%, a % of control [9] of 100% and a % of control [10] of 100%.

`Cc1cc([C@@H](C)Nc2ccccc2C(=O)O)c2nc(N3CCOCC3)cc(=O)n2c1` [AZD-6482] showed a % of control [11] of 100% and a % of control [12] of 83%.

For `CN(C)CCOc1ccc(-c2nc(-c3ccncc3)c(-c3ccc4c(c3)CC/C4=N\O)[nH]2)cc1`, the % of control [13] was 81%.

For `CNC(=O)Nc1ccc(-c2nc(N3CC4CCC(C3)O4)c3cnn(C4CCC5(CC4)OCCO5)c3n2)cc1`, the % of control [14] was 100%, the % of control [15] was 58% and the % of inhibition [16] was 2%.
